Key:
Type in all cases: functional, cell-based
Design in all cases: recommended concentration 100 nM
[1] = biological target: Centromere-associated protein E (Homo sapiens) (UniProt Q02224); experiment: Affinity Phenotypic Cellular interaction: (Cell-growth inhibition assays (growth inhibitory effect colon cancer cell line K-562)) EUB0000734a CENPE; settings: K562, Affinity Phenotypic Cellular Source Knowledge https://pubmed.ncbi.nlm.nih.gov/20167803/
[2] = biological target: Centromere-associated protein E (Homo sapiens) (UniProt Q02224); experiment: Affinity Phenotypic Cellular interaction: (Cell-growth inhibition assays (growth inhibitory effect colon cancer cell line NCI-H2171)) EUB0000734a CENPE; settings: Affinity Phenotypic Cellular Source Knowledge https://pubmed.ncbi.nlm.nih.gov/20167803/
[3] = biological target: Centromere-associated protein E (Homo sapiens) (UniProt Q02224); experiment: Affinity Phenotypic Cellular interaction: (Cell-growth inhibition assays (growth inhibitory effect colon cancer cell line HN5)) EUB0000734a CENPE; settings: Affinity Phenotypic Cellular Source Knowledge https://pubmed.ncbi.nlm.nih.gov/20167803/
[4] = biological target: Centromere-associated protein E (Homo sapiens) (UniProt Q02224); experiment: Affinity Phenotypic Cellular interaction: (Cell-growth inhibition assays (growth inhibitory effect colon cancer cell line DoTc2-4510)) EUB0000734a CENPE; settings: Affinity Phenotypic Cellular Source Knowledge https://pubmed.ncbi.nlm.nih.gov/20167803/
[5] = biological target: Centromere-associated protein E (Homo sapiens) (UniProt Q02224); experiment: Affinity Phenotypic Cellular interaction: (Cell-growth inhibition assays (growth inhibitory effect colon cancer cell line CAL-54)) EUB0000734a CENPE; settings: Affinity Phenotypic Cellular Source Knowledge https://pubmed.ncbi.nlm.nih.gov/20167803/
[6] = biological target: Centromere-associated protein E (Homo sapiens) (UniProt Q02224); experiment: Affinity Phenotypic Cellular interaction: (Cell-growth inhibition assays (growth inhibitory effect colon cancer cell line COLO-320DM)) EUB0000734a CENPE; settings: Affinity Phenotypic Cellular Source Knowledge https://pubmed.ncbi.nlm.nih.gov/20167803/
[7] = biological target: Centromere-associated protein E (Homo sapiens) (UniProt Q02224); experiment: Affinity Phenotypic Cellular interaction: (Cell-growth inhibition assays (growth inhibitory effect colon cancer cell line G-401)) EUB0000734a CENPE; settings: Affinity Phenotypic Cellular Source Knowledge https://pubmed.ncbi.nlm.nih.gov/20167803/
[8] = biological target: Centromere-associated protein E (Homo sapiens) (UniProt Q02224); experiment: Affinity Phenotypic Cellular interaction: (Cell-growth inhibition assays (growth inhibitory effect colon cancer cell line MV-4-11)) EUB0000734a CENPE; settings: MV4-11, Affinity Phenotypic Cellular Source Knowledge https://pubmed.ncbi.nlm.nih.gov/20167803/
[9] = biological target: Centromere-associated protein E (Homo sapiens) (UniProt Q02224); experiment: Affinity Phenotypic Cellular interaction: (Cell-growth inhibition assays (growth inhibitory effect colon cancer cell line LNCaP)) EUB0000734a CENPE; settings: Affinity Phenotypic Cellular Source Knowledge https://pubmed.ncbi.nlm.nih.gov/20167803/
[10] = biological target: Centromere-associated protein E (Homo sapiens) (UniProt Q02224); experiment: Affinity Phenotypic Cellular interaction: (Cell-growth inhibition assays (growth inhibitory effect colon cancer cell line CML-T1)) EUB0000734a CENPE; settings: Affinity Phenotypic Cellular Source Knowledge https://pubmed.ncbi.nlm.nih.gov/20167803/
[11] = biological target: Centromere-associated protein E (Homo sapiens) (UniProt Q02224); experiment: Affinity Phenotypic Cellular interaction: (Cell-growth inhibition assays (growth inhibitory effect colon cancer cell line NCI-H292)) EUB0000734a CENPE; settings: Affinity Phenotypic Cellular Source Knowledge https://pubmed.ncbi.nlm.nih.gov/20167803/
[12] = biological target: Centromere-associated protein E (Homo sapiens) (UniProt Q02224); experiment: Affinity Phenotypic Cellular interaction: (Cell-growth inhibition assays (growth inhibitory effect colon cancer cell line RL)) EUB0000734a CENPE; settings: Affinity Phenotypic Cellular Source Knowledge https://pubmed.ncbi.nlm.nih.gov/20167803/
[13] = biological target: Centromere-associated protein E (Homo sapiens) (UniProt Q02224); experiment: Affinity Phenotypic Cellular interaction: (Cell-growth inhibition assays (growth inhibitory effect colon cancer cell line HCC1954)) EUB0000734a CENPE; settings: Affinity Phenotypic Cellular Source Knowledge https://pubmed.ncbi.nlm.nih.gov/20167803/
[14] = biological target: Centromere-associated protein E (Homo sapiens) (UniProt Q02224); experiment: Affinity Phenotypic Cellular interaction: (Cell-growth inhibition assays (growth inhibitory effect colon cancer cell line SHP-77)) EUB0000734a CENPE; settings: SHP77, Affinity Phenotypic Cellular Source Knowledge https://pubmed.ncbi.nlm.nih.gov/20167803/
[15] = biological target: Centromere-associated protein E (Homo sapiens) (UniProt Q02224); experiment: Affinity Phenotypic Cellular interaction: (Cell-growth inhibition assays (growth inhibitory effect colon cancer cell line BHT-101)) EUB0000734a CENPE; settings: Affinity Phenotypic Cellular Source Knowledge https://pubmed.ncbi.nlm.nih.gov/20167803/
[16] = biological target: Centromere-associated protein E (Homo sapiens) (UniProt Q02224); experiment: Affinity Phenotypic Cellular interaction: (Cell-growth inhibition assays (growth inhibitory effect colon cancer cell line SNB-75)) EUB0000734a CENPE; settings: Affinity Phenotypic Cellular Source Knowledge https://pubmed.ncbi.nlm.nih.gov/20167803/
[17] = biological target: Centromere-associated protein E (Homo sapiens) (UniProt Q02224); experiment: Affinity Phenotypic Cellular interaction: (Cell-growth inhibition assays (growth inhibitory effect colon cancer cell line HOS)) EUB0000734a CENPE; settings: Affinity Phenotypic Cellular Source Knowledge https://pubmed.ncbi.nlm.nih.gov/20167803/
[18] = biological target: Centromere-associated protein E (Homo sapiens) (UniProt Q02224); experiment: Affinity Phenotypic Cellular interaction: (Cell-growth inhibition assays (growth inhibitory effect colon cancer cell line ES-2)) EUB0000734a CENPE; settings: Affinity Phenotypic Cellular Source Knowledge https://pubmed.ncbi.nlm.nih.gov/20167803/
[19] = biological target: Centromere-associated protein E (Homo sapiens) (UniProt Q02224); experiment: Affinity Phenotypic Cellular interaction: (Cell-growth inhibition assays (growth inhibitory effect colon cancer cell line RXF393)) EUB0000734a CENPE; settings: RXF 393, Affinity Phenotypic Cellular Source Knowledge https://pubmed.ncbi.nlm.nih.gov/20167803/
[20] = biological target: Centromere-associated protein E (Homo sapiens) (UniProt Q02224); experiment: Affinity Phenotypic Cellular interaction: (Cell-growth inhibition assays (growth inhibitory effect colon cancer cell line SW1463)) EUB0000734a CENPE; settings: Affinity Phenotypic Cellular Source Knowledge https://pubmed.ncbi.nlm.nih.gov/20167803/
[21] = biological target: Centromere-associated protein E (Homo sapiens) (UniProt Q02224); experiment: Affinity Phenotypic Cellular interaction: (Cell-growth inhibition assays (growth inhibitory effect colon cancer cell line C3A)) EUB0000734a CENPE; settings: Affinity Phenotypic Cellular Source Knowledge https://pubmed.ncbi.nlm.nih.gov/20167803/
[22] = biological target: Centromere-associated protein E (Homo sapiens) (UniProt Q02224); experiment: Affinity Phenotypic Cellular interaction: (Cell-growth inhibition assays (growth inhibitory effect colon cancer cell line HT-3)) EUB0000734a CENPE; settings: Affinity Phenotypic Cellular Source Knowledge https://pubmed.ncbi.nlm.nih.gov/20167803/
[23] = biological target: Centromere-associated protein E (Homo sapiens) (UniProt Q02224); experiment: Affinity Phenotypic Cellular interaction: (Cell-growth inhibition assays (growth inhibitory effect colon cancer cell line EKVX)) EUB0000734a CENPE; settings: Affinity Phenotypic Cellular Source Knowledge https://pubmed.ncbi.nlm.nih.gov/20167803/
[24] = biological target: Centromere-associated protein E (Homo sapiens) (UniProt Q02224); experiment: Affinity Phenotypic Cellular interaction: (Cell-growth inhibition assays (growth inhibitory effect colon cancer cell line SCC-4)) EUB0000734a CENPE; settings: Affinity Phenotypic Cellular Source Knowledge https://pubmed.ncbi.nlm.nih.gov/20167803/
[25] = biological target: Centromere-associated protein E (Homo sapiens) (UniProt Q02224); experiment: Affinity Phenotypic Cellular interaction: (Cell-growth inhibition assays (growth inhibitory effect colon cancer cell line SNB-19)) EUB0000734a CENPE; settings: Affinity Phenotypic Cellular Source Knowledge https://pubmed.ncbi.nlm.nih.gov/20167803/
[26] = biological target: Centromere-associated protein E (Homo sapiens) (UniProt Q02224); experiment: Affinity Phenotypic Cellular interaction: (Cell-growth inhibition assays (growth inhibitory effect colon cancer cell line Y79)) EUB0000734a CENPE; settings: Affinity Phenotypic Cellular Source Knowledge https://pubmed.ncbi.nlm.nih.gov/20167803/
[27] = biological target: Centromere-associated protein E (Homo sapiens) (UniProt Q02224); experiment: Affinity Phenotypic Cellular interaction: (Cell-growth inhibition assays (growth inhibitory effect colon cancer cell line HOP-62)) EUB0000734a CENPE; settings: Affinity Phenotypic Cellular Source Knowledge https://pubmed.ncbi.nlm.nih.gov/20167803/
[28] = biological target: Centromere-associated protein E (Homo sapiens) (UniProt Q02224); experiment: Affinity Phenotypic Cellular interaction: (Cell-growth inhibition assays (growth inhibitory effect colon cancer cell line SW480)) EUB0000734a CENPE; settings: Affinity Phenotypic Cellular Source Knowledge https://pubmed.ncbi.nlm.nih.gov/20167803/
[29] = biological target: Centromere-associated protein E (Homo sapiens) (UniProt Q02224); experiment: Affinity Phenotypic Cellular interaction: (Cell-growth inhibition assays (growth inhibitory effect thyroid cancer cell line SW579)) EUB0000734a CENPE; settings: Affinity Phenotypic Cellular Source Knowledge https://pubmed.ncbi.nlm.nih.gov/20167803/
[30] = biological target: Centromere-associated protein E (Homo sapiens) (UniProt Q02224); experiment: Affinity Phenotypic Cellular interaction: (Cell-growth inhibition assays (growth inhibitory effect colon cancer cell line COLO205)) EUB0000734a CENPE; settings: COLO 205, Affinity Phenotypic Cellular Source Knowledge https://pubmed.ncbi.nlm.nih.gov/20167803/
[31] = biological target: Centromere-associated protein E (Homo sapiens) (UniProt Q02224); experiment: Affinity Phenotypic Cellular interaction: (Cell-growth inhibition assays (growth inhibitory effect colon cancer cell line DB)) EUB0000734a CENPE; settings: Affinity Phenotypic Cellular Source Knowledge https://pubmed.ncbi.nlm.nih.gov/20167803/
[32] = biological target: Centromere-associated protein E (Homo sapiens) (UniProt Q02224); experiment: Affinity Phenotypic Cellular interaction: (Cell-growth inhibition assays (growth inhibitory effect colon cancer cell line OVCAR-3)) EUB0000734a CENPE; settings: Affinity Phenotypic Cellular Source Knowledge https://pubmed.ncbi.nlm.nih.gov/20167803/
[33] = biological target: Centromere-associated protein E (Homo sapiens) (UniProt Q02224); experiment: Affinity Phenotypic Cellular interaction: (Cell-growth inhibition assays (growth inhibitory effect colon cancer cell line MIA PaCa-2)) EUB0000734a CENPE; settings: Affinity Phenotypic Cellular Source Knowledge https://pubmed.ncbi.nlm.nih.gov/20167803/
[34] = biological target: Centromere-associated protein E (Homo sapiens) (UniProt Q02224); experiment: Affinity Phenotypic Cellular interaction: (Cell-growth inhibition assays (growth inhibitory effect colon cancer cell line SR)) EUB0000734a CENPE; settings: Affinity Phenotypic Cellular Source Knowledge https://pubmed.ncbi.nlm.nih.gov/20167803/
[35] = biological target: Centromere-associated protein E (Homo sapiens) (UniProt Q02224); experiment: Affinity Phenotypic Cellular interaction: (Cell-growth inhibition assays (growth inhibitory effect colon cancer cell line CAL-62)) EUB0000734a CENPE; settings: Affinity Phenotypic Cellular Source Knowledge https://pubmed.ncbi.nlm.nih.gov/20167803/
[36] = biological target: Centromere-associated protein E (Homo sapiens) (UniProt Q02224); experiment: Affinity Phenotypic Cellular interaction: (Cell-growth inhibition assays (growth inhibitory effect colon cancer cell line SW1417)) EUB0000734a CENPE; settings: Affinity Phenotypic Cellular Source Knowledge https://pubmed.ncbi.nlm.nih.gov/20167803/
[37] = biological target: Centromere-associated protein E (Homo sapiens) (UniProt Q02224); experiment: Affinity Phenotypic Cellular interaction: (Cell-growth inhibition assays (growth inhibitory effect colon cancer cell line BT-20)) EUB0000734a CENPE; settings: Affinity Phenotypic Cellular Source Knowledge https://pubmed.ncbi.nlm.nih.gov/20167803/
[38] = biological target: Centromere-associated protein E (Homo sapiens) (UniProt Q02224); experiment: Affinity Phenotypic Cellular interaction: (Cell-growth inhibition assays (growth inhibitory effect colon cancer cell line RPMI6666)) EUB0000734a CENPE; settings: RPMI-6666, Affinity Phenotypic Cellular Source Knowledge https://pubmed.ncbi.nlm.nih.gov/20167803/

Chain of Centromere-associated protein E (Homo sapiens) (Q02224 whole entry): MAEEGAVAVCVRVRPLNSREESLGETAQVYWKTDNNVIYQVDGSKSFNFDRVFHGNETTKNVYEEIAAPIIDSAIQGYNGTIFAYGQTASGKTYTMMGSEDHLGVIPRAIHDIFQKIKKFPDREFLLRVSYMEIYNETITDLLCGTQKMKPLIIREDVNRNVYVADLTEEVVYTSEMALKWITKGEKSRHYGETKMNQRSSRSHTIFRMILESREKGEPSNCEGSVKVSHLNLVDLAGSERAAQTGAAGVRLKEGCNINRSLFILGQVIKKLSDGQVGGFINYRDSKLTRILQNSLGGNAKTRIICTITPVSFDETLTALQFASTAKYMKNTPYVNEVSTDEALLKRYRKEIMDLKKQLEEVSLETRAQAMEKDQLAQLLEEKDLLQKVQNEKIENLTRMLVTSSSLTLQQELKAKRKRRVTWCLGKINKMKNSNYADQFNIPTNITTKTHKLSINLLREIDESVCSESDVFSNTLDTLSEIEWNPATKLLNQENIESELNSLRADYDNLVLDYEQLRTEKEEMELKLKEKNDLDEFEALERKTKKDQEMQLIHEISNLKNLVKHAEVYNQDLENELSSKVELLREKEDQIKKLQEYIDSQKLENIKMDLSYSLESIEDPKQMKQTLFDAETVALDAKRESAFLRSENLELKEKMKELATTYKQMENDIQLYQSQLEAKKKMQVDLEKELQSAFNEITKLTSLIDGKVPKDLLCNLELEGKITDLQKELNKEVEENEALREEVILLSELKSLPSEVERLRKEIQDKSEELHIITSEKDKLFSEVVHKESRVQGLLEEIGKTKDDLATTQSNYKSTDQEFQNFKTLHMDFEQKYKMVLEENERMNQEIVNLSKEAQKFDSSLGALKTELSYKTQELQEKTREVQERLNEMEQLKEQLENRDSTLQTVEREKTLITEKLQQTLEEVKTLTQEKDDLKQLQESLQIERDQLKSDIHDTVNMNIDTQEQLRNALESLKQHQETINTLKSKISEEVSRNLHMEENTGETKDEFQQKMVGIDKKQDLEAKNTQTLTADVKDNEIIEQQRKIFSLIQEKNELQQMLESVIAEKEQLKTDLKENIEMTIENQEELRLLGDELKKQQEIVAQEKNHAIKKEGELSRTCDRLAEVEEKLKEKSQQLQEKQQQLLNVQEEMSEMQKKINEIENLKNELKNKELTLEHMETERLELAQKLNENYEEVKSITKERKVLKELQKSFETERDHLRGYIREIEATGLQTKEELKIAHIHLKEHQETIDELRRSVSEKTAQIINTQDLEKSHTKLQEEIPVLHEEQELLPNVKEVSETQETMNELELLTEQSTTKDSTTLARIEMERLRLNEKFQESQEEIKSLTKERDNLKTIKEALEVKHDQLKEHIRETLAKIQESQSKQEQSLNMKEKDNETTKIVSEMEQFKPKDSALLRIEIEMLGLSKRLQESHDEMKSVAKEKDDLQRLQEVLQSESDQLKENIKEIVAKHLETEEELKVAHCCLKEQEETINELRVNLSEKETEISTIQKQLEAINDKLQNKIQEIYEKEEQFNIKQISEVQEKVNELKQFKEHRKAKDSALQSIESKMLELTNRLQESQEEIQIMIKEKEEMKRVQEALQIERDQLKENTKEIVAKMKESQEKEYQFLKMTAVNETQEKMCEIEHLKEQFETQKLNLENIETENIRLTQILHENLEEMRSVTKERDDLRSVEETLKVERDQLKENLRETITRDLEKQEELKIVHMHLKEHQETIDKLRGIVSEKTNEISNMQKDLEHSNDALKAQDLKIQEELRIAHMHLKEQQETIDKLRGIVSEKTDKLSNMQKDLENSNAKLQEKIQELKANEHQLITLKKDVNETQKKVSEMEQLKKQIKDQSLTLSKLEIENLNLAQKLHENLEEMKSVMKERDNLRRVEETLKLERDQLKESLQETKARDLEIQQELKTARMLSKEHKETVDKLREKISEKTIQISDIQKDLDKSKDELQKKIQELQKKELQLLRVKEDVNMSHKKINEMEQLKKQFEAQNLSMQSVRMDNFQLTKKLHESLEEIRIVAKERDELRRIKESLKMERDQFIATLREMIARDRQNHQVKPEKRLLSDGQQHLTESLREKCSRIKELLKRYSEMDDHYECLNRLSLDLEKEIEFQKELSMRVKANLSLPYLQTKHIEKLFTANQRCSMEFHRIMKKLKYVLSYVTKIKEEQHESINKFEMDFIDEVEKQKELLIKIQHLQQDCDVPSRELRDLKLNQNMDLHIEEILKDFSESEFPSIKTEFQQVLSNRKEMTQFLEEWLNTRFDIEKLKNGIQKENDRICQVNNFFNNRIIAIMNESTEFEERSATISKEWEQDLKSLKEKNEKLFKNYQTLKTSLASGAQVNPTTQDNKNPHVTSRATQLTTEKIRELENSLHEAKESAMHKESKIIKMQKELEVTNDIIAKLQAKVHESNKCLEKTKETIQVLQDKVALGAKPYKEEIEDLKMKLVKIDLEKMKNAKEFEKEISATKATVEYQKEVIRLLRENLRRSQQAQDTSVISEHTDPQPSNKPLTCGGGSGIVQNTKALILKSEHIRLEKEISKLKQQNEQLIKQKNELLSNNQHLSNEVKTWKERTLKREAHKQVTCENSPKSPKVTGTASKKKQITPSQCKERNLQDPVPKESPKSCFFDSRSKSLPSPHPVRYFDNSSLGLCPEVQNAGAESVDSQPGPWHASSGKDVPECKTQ

CC(C)Oc1ccc(C(=O)N[C@H](CNC(=O)CN(C)C)Cc2ccc(-c3cn4cccc([C@H](C)O)c4n3)cc2)cc1Cl
GIC50 [1]: 25 nM
GIC50 [2]: 24 nM
GIC50 [3]: 118 nM
GIC50 [4]: 33 nM
GIC50 [5]: 49 nM
GIC50 [6]: 306 nM
GIC50 [7]: 26 nM
GIC50 [8]: 29 nM
GIC50 [9]: 76 nM
GIC50 [10]: 13 nM
GIC50 [11]: 31 nM
GIC50 [12]: 37 nM
GIC50 [13]: 18 nM
GIC50 [14]: 86 nM
GIC50 [15]: 100 nM
GIC50 [16]: 26 nM
GIC50 [17]: 27 nM
GIC50 [18]: 30 nM
GIC50 [19]: 32 nM
GIC50 [20]: 31 nM
GIC50 [21]: 54 nM
GIC50 [22]: 10 µM
GIC50 [23]: 28 nM
GIC50 [24]: 28 nM
GIC50 [25]: 28 nM
GIC50 [26]: 70 nM
GIC50 [27]: 20 nM
GIC50 [28]: 33 nM
GIC50 [29]: 26 nM
GIC50 [30]: 25 nM
GIC50 [31]: 21 nM
GIC50 [32]: 42 nM
GIC50 [33]: 23 nM
GIC50 [34]: 29 nM
GIC50 [35]: 30 nM
GIC50 [36]: 29 nM
GIC50 [37]: 32 nM
GIC50 [38]: 88 nM

From ChEMBL document CHEMBL5444388, “Affinity Phenotypic Cellular Literature for EUbOPEN Chemogenomic Library” (2024)
